# “Also recorded” adds a separate entry of the source.
# Key:
# [1] = test system: LDLr knockout mice; assay: Atherosclerosis in LDLr knockout mice; type: in vivo, mouse; settings: 30 mg/kg IP every day for 6 weeks on chow after 26 weeks western-diet
# Method: Beginning at 6 weeks of age, LDLr knockout mice were fed a high-fat western-diet for 26 weeks. After the dietary challenge, mice were switched to standard chow for 6 weeks. During the 6 weeks on chow diet, mice were injected IP every day with either the polypeptide of SEQ ID NO:4 or a polypeptide of SEQ ID NO:4:POPC complexes at a dose of 30 mg/kg. Control mice received IP injections with PBS vehicle alone. The presence of plaque lesions in the whole aorta was then evaluated.
# [2] = test system: Interleukin-6; assay: Serum Interleukin-6 in ApoE -/- mice (fluorescent bead immunoassay); type: in vivo, mouse
# Description: Apolipoprotein E deficient (ApoE −/−) mice at 6 weeks old were given a Western diets for 18 weeks before commencing treatment. Once daily, intraperitoneal injections were given as saline or the polypeptide of SEQ ID NO:4 (n=6-7 per group). At termination, serum was collected and analyzed for Interleukin-6 concentration by a fluorescent bead immunoassay utilizing flow cytometry (BMS820FF). Mice treated with the polypeptide of SEQ ID NO:4 had about 68% lower serum levels of IL-6 (see, FIG. 22).
# [3] = biological target: ABCA1 (Mus musculus, UniProt P41233); assay: ABCA1 protein stabilization in J774 macrophages (Western blot); type: cell-based; design: endogenous in cells; host or cells: J774 mouse macrophages; settings: 6 hours serum-free medium, no cAMP
# Method: In some embodiments, the stabilization of ABCA is measured by direct measurement of ABCA (e.g., ABCA protein, or nucleic acid) using a cell based assay. Cell based assays can be performed in any cells in which ABCA is expressed (e.g., J774 macrophages), including cells which have been transfected with ABCA (e.g. HeLa cells). Any cell type can be used. For example, J774 macrophages can be used to assess relative ABCA1 protein levels in the presence and absence of polypeptides of the invention. The cells are first contacted with a compound that will induce ABCA (e.g., cAMP or a cAMP analogue such as, 8-bromo-cAMP) to upregulate ABCA (e.g., ABCA1) expression, then exposed to […] polypeptides of the invention in the absence of the cAMP stimulus to evaluate whether ABCA1 protein was stabilized or degraded. Relative levels of ABCA1 protein can be assessed using any means known in the art including, e.g., immunoblot analysis of cell membranes (Oram et al., J. Biol. Chem., 278:52379-52385 (2003)) or hybridization of nucleic acid probes to ABCA mRNA.
# To test whether the polypeptides of the present invention stabilize cellular ABCA1 protein concentrations, J774 mouse macrophages were treated with a cAMP analogue (24 h) to upregulate ABCA1 expression. […] ABCA1 protein in cell lysates was determined by Western blot analysis. […]
# Sequence of ABCA1 (P41233 whole entry): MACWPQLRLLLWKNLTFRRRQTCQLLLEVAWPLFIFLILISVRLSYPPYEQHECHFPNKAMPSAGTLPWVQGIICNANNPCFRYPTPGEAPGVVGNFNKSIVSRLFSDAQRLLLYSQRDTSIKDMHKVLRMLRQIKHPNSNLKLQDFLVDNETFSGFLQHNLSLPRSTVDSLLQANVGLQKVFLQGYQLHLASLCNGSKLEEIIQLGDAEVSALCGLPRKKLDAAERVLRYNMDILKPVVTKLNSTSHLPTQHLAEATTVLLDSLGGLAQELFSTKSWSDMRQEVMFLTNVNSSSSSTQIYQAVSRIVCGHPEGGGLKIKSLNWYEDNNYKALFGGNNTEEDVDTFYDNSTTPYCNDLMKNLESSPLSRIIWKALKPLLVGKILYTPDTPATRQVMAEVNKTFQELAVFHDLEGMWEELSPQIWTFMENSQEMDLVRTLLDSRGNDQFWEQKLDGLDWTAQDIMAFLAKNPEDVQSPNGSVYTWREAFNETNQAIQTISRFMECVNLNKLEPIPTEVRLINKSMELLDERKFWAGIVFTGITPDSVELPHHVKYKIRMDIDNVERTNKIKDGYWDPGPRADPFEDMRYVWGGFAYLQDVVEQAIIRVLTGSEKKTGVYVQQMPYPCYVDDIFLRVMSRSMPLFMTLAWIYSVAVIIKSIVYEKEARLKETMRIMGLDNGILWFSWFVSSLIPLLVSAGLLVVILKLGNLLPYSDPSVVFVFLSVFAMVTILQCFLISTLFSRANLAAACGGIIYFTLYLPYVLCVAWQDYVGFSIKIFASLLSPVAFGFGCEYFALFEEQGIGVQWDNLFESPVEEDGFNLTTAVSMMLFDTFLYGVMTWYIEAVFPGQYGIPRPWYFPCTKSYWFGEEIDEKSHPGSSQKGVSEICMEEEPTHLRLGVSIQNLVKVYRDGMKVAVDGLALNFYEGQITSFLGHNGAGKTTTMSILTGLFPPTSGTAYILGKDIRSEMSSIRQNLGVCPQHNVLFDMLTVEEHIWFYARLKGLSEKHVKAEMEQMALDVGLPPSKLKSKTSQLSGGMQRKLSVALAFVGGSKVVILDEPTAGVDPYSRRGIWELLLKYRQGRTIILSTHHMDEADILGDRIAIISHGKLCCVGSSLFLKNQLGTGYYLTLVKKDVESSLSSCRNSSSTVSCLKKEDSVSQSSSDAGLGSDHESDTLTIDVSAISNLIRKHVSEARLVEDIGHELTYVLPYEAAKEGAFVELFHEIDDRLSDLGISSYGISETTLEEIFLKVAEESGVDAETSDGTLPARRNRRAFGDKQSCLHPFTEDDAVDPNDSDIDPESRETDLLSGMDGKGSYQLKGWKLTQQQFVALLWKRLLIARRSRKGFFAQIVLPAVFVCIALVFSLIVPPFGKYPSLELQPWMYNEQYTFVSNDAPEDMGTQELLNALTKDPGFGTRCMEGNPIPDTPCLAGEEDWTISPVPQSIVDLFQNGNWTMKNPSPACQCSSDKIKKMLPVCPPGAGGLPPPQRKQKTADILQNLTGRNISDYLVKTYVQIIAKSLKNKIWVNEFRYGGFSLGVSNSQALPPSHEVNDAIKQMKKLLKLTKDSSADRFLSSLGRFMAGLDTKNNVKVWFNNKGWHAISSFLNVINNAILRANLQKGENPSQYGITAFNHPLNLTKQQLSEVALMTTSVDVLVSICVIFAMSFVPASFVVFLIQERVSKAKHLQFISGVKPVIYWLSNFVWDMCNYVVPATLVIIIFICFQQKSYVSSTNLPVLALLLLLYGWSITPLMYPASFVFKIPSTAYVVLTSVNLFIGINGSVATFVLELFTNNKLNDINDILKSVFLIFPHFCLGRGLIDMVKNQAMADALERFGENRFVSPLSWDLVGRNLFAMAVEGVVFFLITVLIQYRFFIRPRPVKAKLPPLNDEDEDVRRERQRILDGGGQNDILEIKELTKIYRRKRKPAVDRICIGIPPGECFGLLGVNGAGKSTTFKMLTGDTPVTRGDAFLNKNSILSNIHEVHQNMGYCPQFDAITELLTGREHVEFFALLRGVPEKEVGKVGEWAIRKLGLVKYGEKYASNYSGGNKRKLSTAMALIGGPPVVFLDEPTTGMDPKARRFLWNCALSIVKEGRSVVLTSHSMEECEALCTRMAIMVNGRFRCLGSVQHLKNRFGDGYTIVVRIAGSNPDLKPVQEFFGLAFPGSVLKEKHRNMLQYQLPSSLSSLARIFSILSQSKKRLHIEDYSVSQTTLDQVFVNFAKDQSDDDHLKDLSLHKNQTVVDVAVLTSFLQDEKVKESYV
sequence,measurement,setting,value
"EVRSKLEEWFAAFREFAEEFLARLKS (ATI-5261 amphipathic alpha-helix polypeptide core sequence selectively binds HDL, high-affinity ligand for ATP-binding cassette transporter A1 (ABCA1), ABCA1-lipid cholesterol efflux, ABCA1-stablization, anti-oxidant and anti- inflammatory activity) [SEQ ID NO:4]",plaque lesions in the whole aorta,[1],reduced plaque lesion area over the whole aorta; also recorded: the amount of plaque was reduced
same,serum IL-6 versus saline (in words),"[2]; mouse, in vivo",lowered levels of the inflammatory cytokine IL-6
same,lower serum levels of IL-6,"[2]; once daily IP, vs saline, after 18 weeks Western diet",about 68%
same,ABCA1 protein in cell lysates after cAMP withdrawal,[3],prevented the disappearance of ABCA1 protein

# — patent US8987192B2, “Potent and selective mediators of cholesterol efflux” (The Regents of the University of California, priority 2006, dated 2015)
